Patent US20090099177A1, “PYRIDYL COMPOUNDS” (priority 2006, published 2009)
Structures can show the parent of a compound that is named as a salt.

Columns and labels:
[1] = molecular target: T1, human prostanoid EP1 receptor (Homo sapiens, UniProt P34995); assay: Binding assay for the human prostanoid EP1 receptor (competition with [3H]-PGE2); settings: [3H]-PGE2 competition, human EP1, CHO-K1 membranes; averages of a number of experiments; read-out: pIC50 value (converted)
T1 construct: expressed in transfected cells; host or cells: CHO-K1 (membrane fraction)
T1 sequence (P34995 1-402): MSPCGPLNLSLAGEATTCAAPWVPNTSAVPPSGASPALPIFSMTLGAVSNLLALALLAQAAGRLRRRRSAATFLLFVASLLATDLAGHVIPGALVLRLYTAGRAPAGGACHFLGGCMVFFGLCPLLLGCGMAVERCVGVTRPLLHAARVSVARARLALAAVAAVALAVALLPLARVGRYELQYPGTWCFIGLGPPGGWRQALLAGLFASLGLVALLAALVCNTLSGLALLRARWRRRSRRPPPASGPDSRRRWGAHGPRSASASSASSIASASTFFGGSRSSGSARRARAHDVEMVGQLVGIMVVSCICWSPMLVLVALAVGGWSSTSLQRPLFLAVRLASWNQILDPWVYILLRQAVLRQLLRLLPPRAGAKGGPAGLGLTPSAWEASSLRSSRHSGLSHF
Description: Competition assay using [^3H]-PGE2.
Compound potencies are determined using a radioligand binding assay. In this assay compound potencies are determined from their ability to compete with tritiated prostaglandin E2 ([^3H]-PGE2) for binding to the human EP1 receptor.
This assay utilises Chinese hamster ovary-K1 (CHO-K1) cells into which a stable vector containing the EP1 cDNA has previously been transfected. Cells are cultured in suitable flasks containing culture medium such as DMEM:F-12 supplemented with 10% v/v foetal calf serum, 2 mM L-glutamine, 0.25 mg/ml geneticin, 10 μg/ml puromycin and 10 μM indomethacin.
Cells are detached from the culture flasks by incubation in calcium and magnesium free phosphate buffered saline containing 1 mM disodium ethylenediaminetetraacetic acid (Na2EDTA) and 10 μM indomethacin for 5 min. The cells are isolated by centrifugation at 250×g for 5mins and suspended in an ice cold buffer such as 50 mM Tris, 1 mM Na2EDTA, 140 mM NaCl, 10 μM indomethacin (pH 7.4). The cells are homogenised using a Polytron tissue disrupter (2×10 s burst at full setting), centrifuged at 48,000×g for 20mins and the pellet containing the membrane fraction is washed (optional) three times by suspension and centrifugation at 48,000×g for 20mins. The final membrane pellet is suspended in an assay buffer such as 10 mM 2-[N-morpholino]ethanesulphonic acid, 1 mM Na2EDTA, 10 mM MgCl2 (pH 6). Aliquots are frozen at −80° C. until required.
For the binding assay the cell membranes, competing compounds and [^3H]-PGE2 (3 nM final assay concentration) are incubated in a final volume of 100 μl for 30 min at 30° C. All reagents are prepared in assay buffer. Reactions are terminated by rapid vacuum filtration over GF/B filters using a Brandell cell harvester. The filters are washed with ice cold assay buffer, dried and the radioactivity retained on the filters is measured by liquid scintillation counting in Packard TopCount scintillation counter.
The data are analysed using non linear curve fitting techniques to determine the concentration of compound producing 50% inhibition of specific binding (IC50).

[2] = molecular target: T2, human EP1 receptor (Homo sapiens, UniProt P34995); assay: human EP1 calcium mobilisation assay; assay type: cell-based; settings: for Ki: human EP1, CHO-K1 cells, antagonism of PGE2, averages of a number of experiments, read-out: functional pKi value (converted)
T2 construct: expressed in transfected cells; host or cells: CHO-K1
T2 sequence (P34995 1-402): T1 sequence (P34995 1-402)
Description: Briefly, the antagonist properties of compounds are assessed by their ability to inhibit the mobilisation of intracellular calcium ([Ca^2+]i) in response to activation of EP1 or EP3 receptors by the natural agonist hormone prostaglandin E2 (PGE2). Increasing concentrations of antagonist reduce the amount of calcium that a given concentration of PGE2 can mobilise. The net effect is to displace the PGE2 concentration-effect curve to higher concentrations of PGE2. The amount of calcium produced is assessed using a calcium-sensitive fluorescent dye such as Fluo-4, AM and a suitable instrument such as a Fluorimetric Imaging Plate Reader (FLIPR). Increasing amounts of [Ca^2+]i produced by receptor activation increase the amount of fluorescence produced by the dye and give rise to an increasing signal. The signal may be detected using the FLIPR instrument and the data generated may be analysed with suitable curve-fitting software.
The human EP1 or EP3 calcium mobilisation assay (hereafter referred to as ‘the calcium assay’) utilises Chinese hamster ovary-K1 (CHO-K1) cells into which a stable (pCIN; BioTechniques 20 (1996): 102-110) vector containing either EP1 or EP3 cDNA has previously been transfected. Cells are cultured in suitable flasks containing culture medium such as DMEM:F-12 supplemented with 10% v/v foetal calf serum, 2 mM L-glutamine, 0.25 mg/ml geneticin, 100 μM flurbiprofen and 10 μg/ml puromycin.
For assay, cells are harvested using a proprietary reagent that dislodges cells such as Versene. Cells are re-suspended in a suitable quantity of fresh culture media for introduction into a 384-well plate. Following incubation for 24 hours at 37° C. the culture media is replaced with a medium containing Fluo-4 and the detergent pluronic acid, and a further incubation takes place. Concentrations of compounds are then added to the plate in order to construct concentration-effect curves. This may be performed on the FLIPR in order to assess the agonist properties of the compounds. Concentrations of PGE2 are then added to the plate in order to assess the antagonist properties of the compounds.
The data so generated may be analysed by means of a computerised curve-fitting routine. The concentration of compound that elicits a half-maximal inhibition of the calcium mobilisation induced by PGE2 (pIC50) may then be estimated.

Row | Structure (SMILES) | IC50 [1] [µM] | Ki [2] [µM] | IC50 ([2]; human EP1 calcium mobilisation assay, read-out: pIC50 values (converted)) [µM]
1 | O=C(Nc1cccc(Cc2cc(Cl)ccc2OCc2ccccc2)n1)C1CCCCC1 [Example 4, N-[6-({5-Chloro-2-[(phenylmethyl)oxy]phenyl}methyl)-2-pyridinyl]cyclohexanecarboxamide] | ≤ 0.1 | ≤ 0.316 | –
2 | COc1ccc2[nH]c(-c3cccc(Cc4cc(Cl)ccc4OCc4ccccc4)n3)nc2c1 [Example 31, 2-[6-({5-Chloro-2-[(phenylmethyl)oxy]phenyl}methyl)-2-pyridinyl]-5-(methyloxy)-1H-benzimidazolehydrochloride] | ≤ 0.1 | ≤ 0.316 | –
3 | Fc1cc(Cl)ccc1COc1ccc(Cl)cc1Cc1cccc(-c2nc3cncnc3[nH]2)n1 [Example 20, 8-{6-[(5-Chloro-2-{[(4-chloro-2-fluorophenyl)methyl]oxy}phenyl)methyl]-2-pyridinyl}-1H-purinehydrochloride] | ≤ 0.1 | ≤ 0.316 | –
4 | CN(C)c1ccc2nc(-c3cccc(Cc4cc(Cl)ccc4OCc4ccccc4)n3)[nH]c2c1 [Example 27, 2-[6-({5-Chloro-2-[(phenylmethyl)oxy]phenyl}methyl)-2-pyridinyl]-N,N-dimethyl-1H-benzimidazol-5-aminehydrochloride] | ≤ 0.1 | ≤ 10 | –
5 | CC(C)(C)CC(=O)Nc1cccc(Cc2cc(Cl)ccc2OCc2ccccc2)n1 [Example 5, N-[6-({5-Chloro-2-[(phenylmethyl)oxy]phenyl}methyl)-2-pyridinyl]-3,3-dimethylbutanamide] | ≤ 0.1 | ≤ 0.316 | –
6 | Clc1ccc(OCc2ccccc2)c(Cc2cccc(-c3nc4ccccc4[nH]3)n2)c1 [Example 34, 2-[6-({5-Chloro-2-[(phenylmethyl)oxy]phenyl}methyl)-2-pyridinyl]-1H-benzimidazole hydrochloride] | ≤ 0.1 | ≤ 0.316 | –
7 | Fc1ccc2[nH]c(-c3cccc(Cc4cc(Cl)ccc4OCc4ccccc4)n3)nc2c1 [Example 36, 2-[6-({5-Chloro-2-[(phenylmethyl)oxy]phenyl}methyl)-2-pyridinyl]-5-fluoro-1H-benzimidazolehydrochloride] | ≤ 0.1 | ≤ 0.316 | –
8 | CN(C)Cc1ccc2nc(-c3cccc(Cc4cc(Cl)ccc4OCc4ccc(Cl)cc4F)n3)[nH]c2c1 [Example 58, [(2-{6-[(5-Chloro-2-{[(4-chloro-2-fluorophenyl)methyl]oxy}phenyl)methyl]-2-pyridinyl}-1H-benzimidazol-5-yl)methyl]dimethylamine Hydrochloride] | ≤ 0.1 | – | > 10
9 | CC(C)COc1ccc(Cl)cc1Cc1cccc(-c2nc3nccnc3[nH]2)n1 [Example 22, 2-[6-({5-Chloro-2-[(2-methylpropyl)oxy]phenyl}methyl)-2-pyridinyl]-1H-imidazo[4,5-b]pyrazine hydrochloride] | ≤ 0.1 | ≤ 0.316 | –
10 | CNCc1ccc2nc(-c3cccc(Cc4cc(Cl)ccc4OCC(C)C)n3)[nH]c2c1 [Example 52, ({2-[6-({5-Chloro-2-[(2-methylpropyl)oxy]phenyl}methyl)-2-pyridinyl]-1H-benzimidazol-5-yl}methyl)methylaminehydrochloride] | ≤ 0.1 | ≤ 0.316 | –
11 | CN(CCC#N)Cc1ccc(NC(=O)c2cccc(Cc3cc(Cl)ccc3OCc3ccc(Cl)cc3F)n2)cc1 [Example 57, 6-[(5-Chloro-2-{[(4-chloro-2-fluorophenyl)methyl]oxy}phenyl)methyl]-N-(4-{[(2-cyanoethyl)(methyl)amino]methyl}phenyl)-2-pyridinecarboxamide] | ≤ 0.1 | ≤ 10 | –
12 | Cc1ccc2[nH]c(-c3cccc(Cc4cc(Cl)ccc4OCc4ccccc4)n3)nc2c1 [Example 29, 2-[6-({5-Chloro-2-[(phenylmethyl)oxy]phenyl}methyl)-2-pyridinyl]-5-methyl-1H-benzimidazole Hydrochloride] | ≤ 0.1 | ≤ 10 | –
13 | O=C(Nc1ccc(CO)cc1)c1cccc(Cc2cc(Cl)ccc2OCc2ccc(Cl)cc2F)n1 [Example 13, 6-[(5-Chloro-2-{[(4-chloro-2-fluorophenyl)methyl]oxy}phenyl)methyl]-N-[4-(hydroxymethyl)phenyl]-2-pyridinecarboxamide] | ≤ 0.1 | ≤ 10 | –
14 | Clc1ccc(OCc2ccccc2)c(Cc2cccc(-c3nc4ccc(N5CCOCC5)cc4[nH]3)n2)c1 [Example 28, 2-[6-({5-Chloro-2-[(phenylmethyl)oxy]phenyl}methyl)-2-pyridinyl]-5-(4-morpholinyl)-1H-benzimidazolehydrochloride] | ≤ 0.1 | ≤ 0.316 | –
15 | Fc1cc(Cl)ccc1COc1ccc(Cl)cc1Cc1cccc(-c2nc3ccccc3[nH]2)n1 [Example 19, 2-{6-[(5-Chloro-2-[([(4-chloro-2-fluorophenyl)methyl]oxy}phenyl)methyl]-2-pyridinyl]-1H-benzimidazole Hydrochloride] | ≤ 0.1 | ≤ 0.316 | –
16 | Clc1ccc(OCc2ccccc2)c(Cc2cccc(-c3nc4ncccc4[nH]3)n2)c1 [Example 30, 2-[6-({5-Chloro-2-[(phenylmethyl)oxy]phenyl}methyl)-2-pyridinyl]-1H-imidazo[4,5-b]pyridinehydrochloride] | ≤ 0.1 | ≤ 0.316 | –
17 | CC(C)COc1ccc(Cl)cc1Cc1cccc(NC(=O)c2ccc(CO)cc2)n1 [Example 62, N-[6-({5-Chloro-2-[(2-methylpropyl)oxy]phenyl}methyl)-2-pyridinyl]-4-(hydroxymethyl)benzamide] | ≤ 0.1 | ≤ 10 | –
18 | CC(C)(C)OC(=O)Nc1cccc(Cc2cc(Cl)ccc2OCc2ccc(Cl)cc2F)n1 [Example 61, 1,1-Dimethylethyl {6-[(5-chloro-2-{[(4-chloro-2-fluorophenyl)methyl]oxy}phenyl)methyl]-2-pyridinyl}carbamate Hydrochloride] | ≤ 0.1 | ≤ 0.316 | –
19 | CC(C)COc1ccc(Cl)cc1Cc1cccc(-c2nc3ccccc3[nH]2)n1 [Example 44, 2-[6-({5-Chloro-2-[(2-methylpropyl)oxy]phenyl}methyl)-2-pyridinyl]-1H-benzimidazole] | ≤ 0.1 | ≤ 0.316 | –
20 | Clc1ccc(OCc2ccccc2)c(Cc2cccc(-c3nc4cc(Cl)ccc4[nH]3)n2)c1 [Example 35, 5-Chloro-2-[6-({5-Chloro-2-[(phenylmethyl)oxy]phenyl}methyl)-2-pyridinyl]-1H-benzimidazole hydrochloride] | ≤ 0.1 | ≤ 0.316 | –
